Numbers after ± are expanded uncertainties.
Test: refractive index (Na D-line) (dimensionless); xn = mol fraction of the nth substance listed
Conditions: 101 kPa, Liquid, Standard Abbe refractometry

CCCCc1ccccc1 [butylbenzene] + CCCCOC(C)=O
refractive index
Conditions | 293.15 K | 298.15 K | 303.15 K | 308.15 K | 313.15 K
x2 = 0.049 | 1.48578 ± 0.00065 | 1.48339 ± 0.00066 | 1.48091 ± 0.00066 | 1.47847 ± 0.00067 | 1.47595 ± 0.00067
x2 = 0.1016 | 1.48141 ± 0.00067 | 1.47885 ± 0.00066 | 1.47649 ± 0.00067 | 1.47387 ± 0.00067 | 1.47154 ± 0.00065
x2 = 0.1545 | 1.47686 ± 0.00066 | 1.47443 ± 0.00066 | 1.47201 ± 0.00067 | 1.46946 ± 0.00067 | 1.46708 ± 0.00066
x2 = 0.1989 | 1.47295 ± 0.00066 | 1.47054 ± 0.00066 | 1.46814 ± 0.00067 | 1.46556 ± 0.00067 | 1.46318 ± 0.00065
x2 = 0.2515 | 1.46838 ± 0.00066 | 1.46596 ± 0.00066 | 1.46358 ± 0.00067 | 1.461 ± 0.00067 | 1.45858 ± 0.00066
x2 = 0.3023 | 1.46389 ± 0.00066 | 1.46143 ± 0.00066 | 1.45905 ± 0.00067 | 1.45651 ± 0.00067 | 1.45403 ± 0.00067
x2 = 0.3501 | 1.45956 ± 0.00066 | 1.45713 ± 0.00066 | 1.4547 ± 0.00066 | 1.45232 ± 0.00067 | 1.44977 ± 0.00068
x2 = 0.3997 | 1.45505 ± 0.00066 | 1.45258 ± 0.00066 | 1.45018 ± 0.00066 | 1.44769 ± 0.00067 | 1.44526 ± 0.00067
x2 = 0.45 | 1.45031 ± 0.00066 | 1.44787 ± 0.00066 | 1.44547 ± 0.00066 | 1.44298 ± 0.00067 | 1.44055 ± 0.00066
x2 = 0.4993 | 1.44563 ± 0.00066 | 1.44318 ± 0.00066 | 1.44078 ± 0.00066 | 1.43832 ± 0.00066 | 1.43589 ± 0.00067
x2 = 0.5496 | 1.44082 ± 0.00066 | 1.43837 ± 0.00067 | 1.43591 ± 0.00066 | 1.43351 ± 0.00066 | 1.43104 ± 0.00067
x2 = 0.6004 | 1.43586 ± 0.00066 | 1.43342 ± 0.00066 | 1.43102 ± 0.00067 | 1.42848 ± 0.00067 | 1.42602 ± 0.00067
x2 = 0.6499 | 1.43099 ± 0.00066 | 1.42852 ± 0.00067 | 1.42607 ± 0.00067 | 1.42354 ± 0.00067 | 1.42107 ± 0.00067
x2 = 0.6998 | 1.42593 ± 0.00067 | 1.42345 ± 0.00067 | 1.42099 ± 0.00067 | 1.41852 ± 0.00066 | 1.41609 ± 0.00066
x2 = 0.7517 | 1.4207 ± 0.00066 | 1.41819 ± 0.00067 | 1.41576 ± 0.00066 | 1.41331 ± 0.00067 | 1.41084 ± 0.00067
x2 = 0.801 | 1.41551 ± 0.00066 | 1.41312 ± 0.00066 | 1.4106 ± 0.00067 | 1.40817 ± 0.00066 | 1.40574 ± 0.00066
x2 = 0.8489 | 1.41049 ± 0.00065 | 1.40806 ± 0.00066 | 1.40567 ± 0.00066 | 1.40319 ± 0.00066 | 1.40078 ± 0.00067
x2 = 0.8999 | 1.40499 ± 0.00066 | 1.40257 ± 0.00065 | 1.40021 ± 0.00065 | 1.39782 ± 0.00066 | 1.39529 ± 0.00067
x2 = 0.9493 | 1.39969 ± 0.00065 | 1.39734 ± 0.00066 | 1.39484 ± 0.00066 | 1.39244 ± 0.00066 | 1.39 ± 0.00066

CC(C)c1ccccc1 [isopropylbenzene] + CCCCOC(C)=O
refractive index
Conditions | 293.15 K | 298.15 K | 303.15 K | 308.15 K | 313.15 K
x2 = 0.0521 | 1.48648 ± 0.00069 | 1.48385 ± 0.00069 | 1.48124 ± 0.00068 | 1.47872 ± 0.00069 | 1.47599 ± 0.00071
x2 = 0.0998 | 1.48203 ± 0.00069 | 1.47941 ± 0.00069 | 1.47677 ± 0.00068 | 1.47424 ± 0.00069 | 1.47156 ± 0.0007
x2 = 0.151 | 1.47724 ± 0.00069 | 1.47459 ± 0.00069 | 1.47198 ± 0.00068 | 1.46948 ± 0.00068 | 1.4668 ± 0.0007
x2 = 0.2043 | 1.47219 ± 0.00069 | 1.46954 ± 0.00069 | 1.46694 ± 0.00068 | 1.46442 ± 0.00068 | 1.46178 ± 0.00069
x2 = 0.2496 | 1.4679 ± 0.00069 | 1.46525 ± 0.00069 | 1.46266 ± 0.00068 | 1.46014 ± 0.00068 | 1.45753 ± 0.00069
x2 = 0.3036 | 1.46273 ± 0.00069 | 1.46014 ± 0.00068 | 1.45758 ± 0.00068 | 1.45505 ± 0.00068 | 1.45243 ± 0.00069
x2 = 0.3578 | 1.45755 ± 0.00068 | 1.45496 ± 0.00068 | 1.45242 ± 0.00068 | 1.44988 ± 0.00068 | 1.44725 ± 0.00069
x2 = 0.4021 | 1.45329 ± 0.00069 | 1.45068 ± 0.00068 | 1.44815 ± 0.00068 | 1.44562 ± 0.00068 | 1.44301 ± 0.00069
x2 = 0.4514 | 1.4485 ± 0.00068 | 1.44593 ± 0.00068 | 1.44338 ± 0.00068 | 1.44086 ± 0.00068 | 1.43827 ± 0.00069
x2 = 0.4994 | 1.44384 ± 0.00068 | 1.44127 ± 0.00068 | 1.43873 ± 0.00068 | 1.43623 ± 0.00068 | 1.43363 ± 0.00069
x2 = 0.555 | 1.43843 ± 0.00068 | 1.43587 ± 0.00068 | 1.43334 ± 0.00068 | 1.43083 ± 0.00068 | 1.42824 ± 0.00069
x2 = 0.6017 | 1.43384 ± 0.00068 | 1.4313 ± 0.00068 | 1.42878 ± 0.00067 | 1.42629 ± 0.00068 | 1.42372 ± 0.00069
x2 = 0.65 | 1.42906 ± 0.00067 | 1.42655 ± 0.00067 | 1.42403 ± 0.00067 | 1.42154 ± 0.00068 | 1.41898 ± 0.00068
x2 = 0.6996 | 1.42417 ± 0.00067 | 1.42165 ± 0.00067 | 1.41914 ± 0.00067 | 1.41673 ± 0.00067 | 1.41413 ± 0.00069
x2 = 0.7493 | 1.41919 ± 0.00067 | 1.4167 ± 0.00067 | 1.41421 ± 0.00067 | 1.41175 ± 0.00067 | 1.40924 ± 0.00068
x2 = 0.8007 | 1.4141 ± 0.00067 | 1.41161 ± 0.00067 | 1.40915 ± 0.00067 | 1.40668 ± 0.00067 | 1.40412 ± 0.00068
x2 = 0.8497 | 1.4092 ± 0.00067 | 1.40674 ± 0.00067 | 1.40425 ± 0.00067 | 1.4018 ± 0.00067 | 1.39927 ± 0.00068
x2 = 0.8992 | 1.40425 ± 0.00066 | 1.4018 ± 0.00067 | 1.39931 ± 0.00066 | 1.39691 ± 0.00067 | 1.39437 ± 0.00067
x2 = 0.95 | 1.39913 ± 0.00065 | 1.39675 ± 0.00066 | 1.39426 ± 0.00066 | 1.39185 ± 0.00066 | 1.3894 ± 0.0007

Reference: the NIST ThermoML archive (doi:10.1007/s10765-005-8096-3)
